Calls of active or inactive are those of the source.
Key:
[1] = target: T1, Voltage-dependent T-type calcium channel subunit alpha-1H (Homo sapiens, UniProt O95180); experiment: Inhibition of Cav3.2 (unknown origin) assessed as reduction in KCl-induced increase in intracellular calcium level at 10 uM by fura-2 AM indicator based FDSS assay relative to control; type: cell-based
[2] = target: T2, Voltage-dependent T-type calcium channel subunit alpha-1G (Homo sapiens, UniProt O43497); experiment: Inhibition of recombinant human Cav3.1 expressed in HEK293 cells assessed as reduction in KCl-induced increase in intracellular calcium level at 10 uM by fura-2 AM indicator based FDSS assay relative to control; type: cell-based
[3] = Stability in human liver microsomes assessed as parent compound remaining measured after 30 mins; type: ADME, Microsome; details: read-out: Stability
[4] = target: Voltage-gated inwardly rectifying potassium channel KCNH2 (Homo sapiens, UniProt Q12809); experiment: Inhibition of human ERG by whole-cell patch clamp method
[5] = target: CYP2C19 (Homo sapiens, UniProt P33261); experiment: Inhibition of CYP2C19 (unknown origin) assessed as residual activity at 10 uM relative to control; type: ADME; details: read-out: Activity
[6] = target: CYP3A4 (Homo sapiens, UniProt P08684); experiment: Inhibition of CYP3A4 (unknown origin) assessed as residual activity at 10 uM relative to control; type: ADME; details: read-out: Activity
[7] = target: T3, CYP1A2 (Homo sapiens, UniProt P05177); experiment: Inhibition of CYP1A2 (unknown origin) assessed as residual activity at 10 uM relative to control; type: ADME; details: read-out: Activity
T3 sequence (P05177 whole entry): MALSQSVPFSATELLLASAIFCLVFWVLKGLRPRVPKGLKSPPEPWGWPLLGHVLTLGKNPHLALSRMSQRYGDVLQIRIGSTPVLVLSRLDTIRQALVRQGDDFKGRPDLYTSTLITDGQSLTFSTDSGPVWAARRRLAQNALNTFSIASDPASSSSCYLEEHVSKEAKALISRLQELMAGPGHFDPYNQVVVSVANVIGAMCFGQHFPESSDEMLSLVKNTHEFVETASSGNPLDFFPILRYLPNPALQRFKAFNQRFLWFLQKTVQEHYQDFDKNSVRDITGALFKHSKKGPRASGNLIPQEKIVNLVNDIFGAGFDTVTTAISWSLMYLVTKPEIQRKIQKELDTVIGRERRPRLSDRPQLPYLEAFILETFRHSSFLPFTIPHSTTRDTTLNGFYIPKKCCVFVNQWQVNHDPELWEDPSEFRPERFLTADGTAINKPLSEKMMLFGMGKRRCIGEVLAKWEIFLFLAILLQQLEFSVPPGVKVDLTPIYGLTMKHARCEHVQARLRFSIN

[8] = target: T1, Voltage-dependent T-type calcium channel subunit alpha-1H; experiment: Inhibition of Cav3.2 (unknown origin) assessed as suppression of KCl-evoked current by whole-cell patch clamp method
[9] = target: T2, Voltage-dependent T-type calcium channel subunit alpha-1G; experiment: Inhibition of recombinant human Cav3.1 expressed in HEK293 cells assessed as suppression of KCl-evoked current by whole-cell patch clamp method; type: cell-based
[10] = system: Rattus norvegicus; experiment: Analgesic activity in Sprague-Dawley rat L5/L6 spinal nerve ligation-induced neuropathic pain model assessed as decrease in paw withdrawal threshold to non-noxious cold stimuli at 100 mg/kg, po measured after 1 hr; type: functional, organism-based
[11] = system: Rattus norvegicus; experiment: Analgesic activity in Sprague-Dawley rat L5/L6 spinal nerve ligation-induced neuropathic pain model assessed as reversal of mechanical allodynia by measuring increase in paw withdrawal threshold to non-noxious mechanical stimuli at 100 mg/kg, po measured after 3 hrs relative to control; type: functional
[12] = target: CYP2C9 (Homo sapiens, UniProt P11712); experiment: Inhibition of CYP2C9 (unknown origin) assessed as residual activity at 10 uM relative to control; type: ADME; details: read-out: Activity
[13] = target: CYP2D6 (Homo sapiens, UniProt P10635); experiment: Inhibition of CYP2D6 (unknown origin) assessed as residual activity at 10 uM relative to control; type: ADME; details: read-out: Activity
[14] = system: Rattus norvegicus; experiment: Analgesic activity in Sprague-Dawley rat L5/L6 spinal nerve ligation-induced neuropathic pain model assessed as decrease in paw withdrawal threshold to non-noxious cold stimuli at 100 mg/kg, po measured after 5 hrs; type: functional, organism-based

Chain of Voltage-gated inwardly rectifying potassium channel KCNH2 (Q12809 whole entry): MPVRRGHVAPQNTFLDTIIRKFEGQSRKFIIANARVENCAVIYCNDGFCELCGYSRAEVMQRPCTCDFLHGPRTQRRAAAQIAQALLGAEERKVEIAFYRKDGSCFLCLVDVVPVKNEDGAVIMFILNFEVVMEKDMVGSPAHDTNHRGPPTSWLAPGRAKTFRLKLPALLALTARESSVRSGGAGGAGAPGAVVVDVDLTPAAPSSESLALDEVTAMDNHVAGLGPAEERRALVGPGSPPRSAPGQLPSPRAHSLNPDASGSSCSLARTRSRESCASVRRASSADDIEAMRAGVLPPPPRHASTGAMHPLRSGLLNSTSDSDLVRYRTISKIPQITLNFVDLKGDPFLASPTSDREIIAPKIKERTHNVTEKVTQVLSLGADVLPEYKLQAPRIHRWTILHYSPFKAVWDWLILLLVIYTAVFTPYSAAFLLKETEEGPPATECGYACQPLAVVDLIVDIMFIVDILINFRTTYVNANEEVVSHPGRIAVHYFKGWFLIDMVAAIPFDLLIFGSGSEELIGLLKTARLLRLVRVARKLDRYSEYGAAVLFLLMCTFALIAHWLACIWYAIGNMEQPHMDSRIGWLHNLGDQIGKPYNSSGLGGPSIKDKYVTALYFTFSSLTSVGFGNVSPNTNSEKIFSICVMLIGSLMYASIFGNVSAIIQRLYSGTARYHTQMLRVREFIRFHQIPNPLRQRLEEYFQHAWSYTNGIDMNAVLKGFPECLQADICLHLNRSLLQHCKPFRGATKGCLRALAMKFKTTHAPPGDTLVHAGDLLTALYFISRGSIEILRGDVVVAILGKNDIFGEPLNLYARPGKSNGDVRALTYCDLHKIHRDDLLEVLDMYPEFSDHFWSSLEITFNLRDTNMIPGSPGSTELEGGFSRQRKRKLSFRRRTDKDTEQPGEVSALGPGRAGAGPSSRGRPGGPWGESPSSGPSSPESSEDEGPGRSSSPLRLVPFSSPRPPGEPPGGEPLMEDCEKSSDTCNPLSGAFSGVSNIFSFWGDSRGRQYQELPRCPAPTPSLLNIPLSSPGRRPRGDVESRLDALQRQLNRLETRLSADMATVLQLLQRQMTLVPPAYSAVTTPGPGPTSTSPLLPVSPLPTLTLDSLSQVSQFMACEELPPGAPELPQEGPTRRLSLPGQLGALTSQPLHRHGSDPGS
T1 sequence (O95180 whole entry): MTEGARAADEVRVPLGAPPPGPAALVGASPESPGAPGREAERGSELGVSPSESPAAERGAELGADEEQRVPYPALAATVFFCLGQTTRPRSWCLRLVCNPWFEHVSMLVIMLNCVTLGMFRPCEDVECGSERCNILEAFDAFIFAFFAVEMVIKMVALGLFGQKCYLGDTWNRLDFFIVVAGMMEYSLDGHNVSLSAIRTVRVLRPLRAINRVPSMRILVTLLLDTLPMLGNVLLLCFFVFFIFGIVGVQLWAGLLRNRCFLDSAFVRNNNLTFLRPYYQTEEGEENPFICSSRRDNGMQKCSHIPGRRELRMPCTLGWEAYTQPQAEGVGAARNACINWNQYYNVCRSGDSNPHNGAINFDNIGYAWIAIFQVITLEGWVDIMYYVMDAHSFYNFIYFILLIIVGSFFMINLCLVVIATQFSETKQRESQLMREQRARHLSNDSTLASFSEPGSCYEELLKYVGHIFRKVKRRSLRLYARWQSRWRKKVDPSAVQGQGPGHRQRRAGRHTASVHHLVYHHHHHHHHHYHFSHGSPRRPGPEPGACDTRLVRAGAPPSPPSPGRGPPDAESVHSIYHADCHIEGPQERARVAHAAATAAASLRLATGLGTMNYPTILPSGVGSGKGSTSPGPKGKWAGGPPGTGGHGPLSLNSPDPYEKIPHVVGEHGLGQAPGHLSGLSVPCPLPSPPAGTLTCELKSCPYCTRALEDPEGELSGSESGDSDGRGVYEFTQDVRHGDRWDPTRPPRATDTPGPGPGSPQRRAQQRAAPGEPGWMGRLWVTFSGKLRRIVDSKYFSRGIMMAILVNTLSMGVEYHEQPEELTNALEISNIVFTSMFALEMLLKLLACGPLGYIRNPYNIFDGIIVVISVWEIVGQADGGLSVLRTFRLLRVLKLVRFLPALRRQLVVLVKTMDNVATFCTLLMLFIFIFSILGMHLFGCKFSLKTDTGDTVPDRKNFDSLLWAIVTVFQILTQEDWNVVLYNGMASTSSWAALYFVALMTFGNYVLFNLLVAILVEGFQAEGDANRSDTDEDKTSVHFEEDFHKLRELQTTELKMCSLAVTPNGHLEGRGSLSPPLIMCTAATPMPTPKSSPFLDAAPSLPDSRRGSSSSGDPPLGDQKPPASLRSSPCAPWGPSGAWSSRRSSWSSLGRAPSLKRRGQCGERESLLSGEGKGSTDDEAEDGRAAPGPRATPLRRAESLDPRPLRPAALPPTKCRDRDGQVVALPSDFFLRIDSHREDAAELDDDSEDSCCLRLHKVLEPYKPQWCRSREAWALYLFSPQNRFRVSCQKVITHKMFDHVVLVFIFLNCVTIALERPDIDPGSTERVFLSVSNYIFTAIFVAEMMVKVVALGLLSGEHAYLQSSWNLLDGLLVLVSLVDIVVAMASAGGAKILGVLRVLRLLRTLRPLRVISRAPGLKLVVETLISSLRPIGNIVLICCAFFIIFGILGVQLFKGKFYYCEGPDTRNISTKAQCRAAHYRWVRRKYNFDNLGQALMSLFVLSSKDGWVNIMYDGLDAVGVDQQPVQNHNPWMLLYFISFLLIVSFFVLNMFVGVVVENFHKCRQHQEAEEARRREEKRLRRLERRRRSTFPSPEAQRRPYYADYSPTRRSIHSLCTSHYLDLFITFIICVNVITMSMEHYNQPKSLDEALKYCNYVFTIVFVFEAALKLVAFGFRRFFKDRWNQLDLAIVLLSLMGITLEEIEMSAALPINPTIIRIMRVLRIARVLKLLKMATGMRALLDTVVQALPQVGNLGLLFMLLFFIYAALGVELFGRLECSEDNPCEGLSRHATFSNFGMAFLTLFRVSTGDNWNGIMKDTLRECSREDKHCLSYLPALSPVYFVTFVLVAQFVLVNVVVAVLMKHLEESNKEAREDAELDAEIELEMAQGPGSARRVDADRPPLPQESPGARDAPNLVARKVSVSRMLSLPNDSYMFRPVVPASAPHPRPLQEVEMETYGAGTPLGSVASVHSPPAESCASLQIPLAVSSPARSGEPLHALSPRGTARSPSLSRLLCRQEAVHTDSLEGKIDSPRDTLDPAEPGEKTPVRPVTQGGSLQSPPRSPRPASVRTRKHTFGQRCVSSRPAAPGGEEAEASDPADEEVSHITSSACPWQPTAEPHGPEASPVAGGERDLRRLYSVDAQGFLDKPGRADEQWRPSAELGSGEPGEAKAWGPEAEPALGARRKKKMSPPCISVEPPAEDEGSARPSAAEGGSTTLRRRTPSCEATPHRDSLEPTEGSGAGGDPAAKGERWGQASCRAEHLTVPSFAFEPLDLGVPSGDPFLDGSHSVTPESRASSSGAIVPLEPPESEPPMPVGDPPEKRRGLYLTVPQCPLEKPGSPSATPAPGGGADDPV
Chain of CYP3A4 (P08684 whole entry): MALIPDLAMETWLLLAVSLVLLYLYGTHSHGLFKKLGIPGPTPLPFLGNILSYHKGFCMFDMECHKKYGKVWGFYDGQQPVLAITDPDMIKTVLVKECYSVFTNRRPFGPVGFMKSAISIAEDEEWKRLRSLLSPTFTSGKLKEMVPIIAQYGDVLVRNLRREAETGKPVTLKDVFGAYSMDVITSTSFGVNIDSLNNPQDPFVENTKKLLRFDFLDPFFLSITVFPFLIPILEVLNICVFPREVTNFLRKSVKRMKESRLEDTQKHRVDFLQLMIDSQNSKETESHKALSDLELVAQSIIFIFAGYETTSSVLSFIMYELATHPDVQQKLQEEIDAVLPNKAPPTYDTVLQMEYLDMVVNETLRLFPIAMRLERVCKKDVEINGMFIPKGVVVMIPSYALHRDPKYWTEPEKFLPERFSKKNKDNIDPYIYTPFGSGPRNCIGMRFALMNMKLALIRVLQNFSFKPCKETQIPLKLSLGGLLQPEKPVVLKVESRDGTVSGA
Chain of CYP2C9 (P11712 whole entry): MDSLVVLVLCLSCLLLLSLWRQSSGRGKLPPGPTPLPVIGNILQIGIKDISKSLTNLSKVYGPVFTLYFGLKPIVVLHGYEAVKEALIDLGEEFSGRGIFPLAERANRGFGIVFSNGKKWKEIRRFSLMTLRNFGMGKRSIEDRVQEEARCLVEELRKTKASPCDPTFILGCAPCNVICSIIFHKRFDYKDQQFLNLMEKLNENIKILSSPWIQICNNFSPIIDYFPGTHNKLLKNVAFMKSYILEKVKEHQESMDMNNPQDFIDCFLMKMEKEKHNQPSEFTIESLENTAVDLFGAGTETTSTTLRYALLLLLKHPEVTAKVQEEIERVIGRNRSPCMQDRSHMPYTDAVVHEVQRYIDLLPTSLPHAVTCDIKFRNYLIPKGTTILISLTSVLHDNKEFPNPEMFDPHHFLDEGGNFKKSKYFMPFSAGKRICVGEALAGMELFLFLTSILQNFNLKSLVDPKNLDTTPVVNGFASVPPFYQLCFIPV
Chain of CYP2C19 (P33261 whole entry): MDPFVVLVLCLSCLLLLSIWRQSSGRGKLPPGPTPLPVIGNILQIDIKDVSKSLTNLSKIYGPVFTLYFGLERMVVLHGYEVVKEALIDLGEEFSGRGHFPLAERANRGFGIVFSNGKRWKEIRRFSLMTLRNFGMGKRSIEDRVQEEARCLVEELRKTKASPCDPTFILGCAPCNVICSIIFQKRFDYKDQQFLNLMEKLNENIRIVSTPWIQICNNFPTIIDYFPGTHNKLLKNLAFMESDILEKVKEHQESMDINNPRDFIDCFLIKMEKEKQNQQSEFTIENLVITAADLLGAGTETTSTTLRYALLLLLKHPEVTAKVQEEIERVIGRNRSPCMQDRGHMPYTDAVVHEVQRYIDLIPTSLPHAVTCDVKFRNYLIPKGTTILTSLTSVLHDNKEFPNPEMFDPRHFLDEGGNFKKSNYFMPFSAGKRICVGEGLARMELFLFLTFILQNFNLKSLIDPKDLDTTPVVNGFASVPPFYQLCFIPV

Row | SMILES | inhibition [1] [%] | inhibition [2] [%] | remaining at 0.5 h [3] [%] | IC50 [4] [nM] | also measured
1 | CC(C)c1cc(C(=O)NC[C@H]2CCN(C(=O)CC(C)(C)C)C2)on1 | 17.8 | 23.1 | – | – | –
2 | COC(=O)C1=C(C)NC(C)=C(C(=O)NC[C@H]2CCN(CCc3ccc(C(F)(F)F)cc3)C2)C1c1cccc([N+](=O)[O-])c1 (stereo not given in full) | 34.1 | 43.5 | 2.01 | 1480 | –
3 | COC(=O)C1=C(C)NC(C)=C(C(=O)NC[C@H]2CCN(CCc3ccc(OC(F)(F)F)c(F)c3)C2)C1c1cccc([N+](=O)[O-])c1 (stereo not given in full) | 33.7 | 26.4 | 0.25 | 1470 | –
4 | COC(=O)C1=C(C)NC(C)=C(C(=O)NC[C@H]2CCNC2)C1c1cccc([N+](=O)[O-])c1 (stereo not given in full) | 21.8 | 5.49 | – | – | –
5 | COC(=O)C1=C(C)NC(C)=C(C(=O)NC[C@H]2CCN(CCc3ccc(C)c(C(F)(F)F)c3)C2)C1c1cccc([N+](=O)[O-])c1 (stereo not given in full) | 65.2 | 78.3 | 0.63 | 2700 | –
6 | CC(C)c1cc(C(=O)NC[C@H]2CCN(CCc3ccc(Cl)c(Cl)c3)C2)on1 | 69.7 | 71.7 | 51.7 | 1530 | –
7 | CC(C)c1cc(C(=O)NC[C@H]2CCNC2)on1 | 8.36 | 11.4 | – | – | –
8 | Cc1ccc(CCN2CC[C@H](CNC(=O)c3cc(C(C)C)no3)C2)cc1C(F)(F)F | 51.9 | 46.8 | 39.8 | 1900 | activity at 10 µM [5]: 50.4%; activity at 10 µM [6]: 33%; activity at 10 µM [7]: 88.1%; IC50 [8]: 7610 nM; IC50 [9]: 5130 nM; Activity [10]: Active; Activity [11]: 80%; activity at 10 µM [12]: 53.9%; activity at 10 µM [13]: 31.2%; Activity [14]: Active
9 | CC(C)c1cc(C(=O)NC[C@H]2CCN(CCc3ccc(C(F)(F)F)cc3)C2)on1 | 63.2 | 48.7 | 34.2 | – | –
10 | CC(C)c1cc(C(=O)NC[C@H]2CCN(CCc3ccc(Cl)c(F)c3)C2)on1 | 50.1 | 59.9 | 26.2 | 1520 | –
11 | CC(C)c1cc(C(=O)NC[C@H]2CCN(CCC(C)(C)C)C2)on1 | 21.1 | 23.3 | – | – | –
12 | COC(=O)C1=C(C)NC(C)=C(C(=O)NC[C@H]2CCN(CCc3ccc(Cl)c(Cl)c3)C2)C1c1cccc([N+](=O)[O-])c1 (stereo not given in full) | 31.3 | 32.5 | 2.87 | – | –
13 | NCC1(CC(=O)O)CCCCC1 | – | – | – | – | Activity [11]: Active; Activity [14]: Active
14 | COC(=O)C1=C(C)NC(C)=C(C(=O)NC[C@H]2CCN(CCc3ccc(Cl)c(F)c3)C2)C1c1cccc([N+](=O)[O-])c1 (stereo not given in full) | 69.7 | 80.3 | 2.13 | 330 | –
15 | CC(C)c1cc(C(=O)NC[C@H]2CCN(Cc3cccnc3)C2)on1 | 11.6 | 2.4 | – | – | –
16 | CC(C)c1cc(C(=O)NC[C@H]2CCN(CCc3ccc(OC(F)(F)F)c(F)c3)C2)on1 | 59.7 | 36.4 | 35.2 | 160 | –

From ChEMBL document CHEMBL4392842, “Structural hybridization of pyrrolidine-based T-type calcium channel inhibitors and exploration of their analgesic effects in a neuropathic pain model” (Bioorg Med Chem Lett, 2019)
